{
  "source": "patent US20120052061A1",
  "about": "“THERAPIES FOR TREATING CANCER USING COMBINATIONS OF COX-2 INHIBITORS AND ANTI-HER2(ERBB2) ANTIBODIES OR COMBINATIONS OF COX-2 INHIBITORS AND HER2(ERBB2) RECEPTOR TYROSINE KINASE INHIBITORS” (Tragara Pharmaceuticals Inc., priority 2007, published 2012)",
  "key": {"[1]": {"experiment": "oral pharmacokinetics in monkeys", "type": "in vivo", "method": "(§1) Peak plasma concentrations were achieved between 1 and 3 hours after a dose of 5 mg/kg."}, "[2]": {"test_system": "BT474 tumor", "experiment": "BT474 model, tumor growth delay study (Example 9)", "details": "po, qd to end", "description": "Female SCID mice were injected subcutaneously in the flank (1 mm^3 BT474 tumor) and tumor volume was evaluated using a caliper twice a week for up to 90 days, longer for responders. Upon reaching an average tumor size of 100-200 mg the treatment was begun. Celecoxib and 2-(4-ethoxyphenyl)-4-methyl-1-(4-sulfamoylphenyl)-pyrrole were both formulated as a solution in 1% carboxymethyl cellulose/water and dosed orally by gavage. […] The endpoint for the study was when tumor volume reached 0.75 gms or 90 days, which ever came first."}, "[3]": {"experiment": "oral pharmacokinetics in dogs", "type": "in vivo", "method": "as §1"}, "[4]": {"details": "dog, in vivo"}, "[5]": {"details": "human, in vivo"}, "[6]": {"experiment": "oral pharmacokinetics in rodents", "type": "in vivo, rodents (mice, rats)", "method": "as §1"}, "[7]": {"details": "in vivo"}, "[8]": {"details": "human, in vivo, po", "method": "as §1"}, "[9]": {"details": "rat, in vivo"}, "[10]": {"experiment": "oral pharmacokinetics, all species examined", "type": "in vivo, mice, rats, dogs, and monkeys", "details": "orally administered", "method": "as §1"}, "[11]": {"test_system": "MCF-7 tumor", "details": "for tolerability: mouse, in vivo", "description": "Upon reaching an average tumor size of 100-200 mg the treatment was begun. Celecoxib and 2-(4-ethoxyphenyl)-4-methyl-1-(4-sulfamoylphenyl)-pyrrole were both formulated as a solution in 1% carboxymethyl cellulose/water and dosed orally by gavage. The endpoint for the study was when tumor volume reached 0.75 gms or 90 days, which ever came first."}, "[12]": {"test_system": "human breast cancer cells (SK-BR-3)", "experiment": "SK-BR-3 model (Example 8)", "type": "in vivo, nude mice", "details": "trastuzumab intravenously", "description": "Mice are injected subcutaneously in the left paw (1×10^6 tumor cells suspended in 30% Matrigel) and tumor volume is evaluated using a phlethysmometer twice a week for 30-60 days. Implantation of human breast cancer cells (SK-BR-3) into nude mice produces tumors that will reach 0.6-2 ml between 30-50 days. […] The data is expressed as the mean+/−SEM. Student's and Mann-Whitney tests are used to assess differences between means using the InStat software package.\nThe efficacy of both agents are determined by measuring tumor volume.\nB. In a second assay, mice injected with SK-BR-3 cancer cells are then treated with 5-FU on days 12 through 15. […] The efficacy of both agents are determined by measuring tumor volume."}, "[13]": {"details": "Groups 2 and 6: single agent 100 mg/kg"}, "[14]": {"details": "Groups 3 and 7: single agent 30 mg/kg"}, "[15]": {"details": "Groups 3 and 9: 30 mg/kg, po, daily"}, "[16]": {"details": "Groups 4 and 10: 10 mg/kg, po, daily"}, "[17]": {"details": "Groups 5 and 11: 3 mg/kg, po, daily"}, "[18]": {"details": "Groups 6 and 12: 1 mg/kg, po, daily"}, "[19]": {"details": "Group 5: single agent 300 mg/kg"}, "[20]": {"details": "third assay (C): 5-FU i.p 50 mg/kg on days 14 through 17, COX-2 inhibitor in the diet"}},
  "note": "Where two headings read alike, the source gives them in different places.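 Wherever % tumor growth delay is given: female SCID mice bearing subcutaneous flank BT474 xenografts, oral gavage dosing started at 100-200 mg tumors, caliper volume twice weekly, endpoint tumor 0.75 g or 90 days.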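 Wherever Regressions: CR (complete regressions) is given: female SCID mice bearing subcutaneous flank BT474 xenografts, oral gavage dosing started at 100-200 mg tumors, caliper volume twice weekly, endpoint tumor 0.75 g or 90 days.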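 Wherever Regressions: PR (partial regressions) is given: female SCID mice bearing subcutaneous flank BT474 xenografts, oral gavage dosing started at 100-200 mg tumors, caliper volume twice weekly, endpoint tumor 0.75 g or 90 days.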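 Wherever Regressions: TFS (tumor free survivors) is given: female SCID mice bearing subcutaneous flank BT474 xenografts, oral gavage dosing started at 100-200 mg tumors, caliper volume twice weekly, endpoint tumor 0.75 g or 90 days.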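 Wherever active as a single agent in MCF-7 is given: mouse MCF-7 tumor model, oral gavage dosing started once mean tumor size reached 100-200 mg, endpoint at tumor volume 0.75 g or 90 days, whichever occurred earlier.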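 Wherever tolerability is given: mouse MCF-7 tumor model, oral gavage dosing started once mean tumor size reached 100-200 mg, endpoint at tumor volume 0.75 g or 90 days, whichever occurred earlier.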",
  "data": [
    {"molecule": "CCOc1ccc(-c2cc(C)cn2-c2ccc(S(N)(=O)=O)cc2)cc1", "values": [
      {"measurement": "Oral availability", "setting": "[1]", "value": 34, "unit": "%"},
      {"measurement": "% tumor growth delay", "setting": "[2]; Group 4: single agent 10 mg/kg", "value": "−22", "unit": "%"},
      {"measurement": "Difference from control", "setting": "[2]; Group 4: single agent 10 mg/kg", "value": "−8.5"},
      {"measurement": "Median Total Time to Endpoint", "setting": "[2]; Group 4: single agent 10 mg/kg", "value": 29.7, "unit": "days"},
      {"measurement": "Regressions: CR (complete regressions)", "setting": "[2]; Group 4: single agent 10 mg/kg", "value": "0/0/0"},
      {"measurement": "Regressions: PR (partial regressions)", "setting": "[2]; Group 4: single agent 10 mg/kg", "value": "0/0/0"},
      {"measurement": "Regressions: TFS (tumor free survivors)", "setting": "[2]; Group 4: single agent 10 mg/kg", "value": "0/0/0"},
      {"measurement": "% tumor growth delay", "setting": "[2]; [13]", "value": "−14", "unit": "%"},
      {"measurement": "Difference from control", "setting": "[2]; [13]", "value": "−5.5"},
      {"measurement": "Median Total Time to Endpoint", "setting": "[2]; [13]", "value": 32.7, "unit": "days"},
      {"measurement": "Regressions: CR (complete regressions)", "setting": "[2]; [13]", "value": "0/0/0"},
      {"measurement": "Regressions: PR (partial regressions)", "setting": "[2]; [13]", "value": "0/0/0"},
      {"measurement": "Regressions: TFS (tumor free survivors)", "setting": "[2]; [13]", "value": "0/0/0"},
      {"measurement": "% tumor growth delay", "setting": "[2]; [14]", "value": "−16", "unit": "%"},
      {"measurement": "Difference from control", "setting": "[2]; [14]", "value": "−6.2"},
      {"measurement": "Median Total Time to Endpoint", "setting": "[2]; [14]", "value": 32.0, "unit": "days"},
      {"measurement": "Regressions: CR (complete regressions)", "setting": "[2]; [14]", "value": "0/0/0"},
      {"measurement": "Regressions: PR (partial regressions)", "setting": "[2]; [14]", "value": "0/0/0"},
      {"measurement": "Regressions: TFS (tumor free survivors)", "setting": "[2]; [14]", "value": "0/0/0"},
      {"measurement": "Oral availability", "setting": "[3]", "value": 59, "unit": "%"},
      {"measurement": "minimum lethal dose", "setting": "[4]", "value": "> 2000", "unit": "mg/kg"},
      {"measurement": "gastric or duodenal toxicity compared to placebo", "setting": "[5]", "value": "no increase in gastric or duodenal toxicity"},
      {"measurement": "half-life", "setting": "[6]; mice, rats, plasma, 5 mg/kg, rodents, oral, read-out: elimination half life (t1/2)", "value": "4 to 5", "unit": "h"},
      {"measurement": "Oral availability", "setting": "[6]; rodent", "value": "greatest"},
      {"measurement": "toxicological findings", "setting": "[7]", "value": "expected findings related to inhibition of cyclooxygenase"},
      {"measurement": "dose exposure relationship", "setting": "[8]", "value": "linear dose exposure relationship"},
      {"measurement": "minimum lethal dose", "setting": "[9]", "value": 600, "unit": "mg/kg"},
      {"measurement": "absorption", "setting": "[10]", "value": "rapidly absorbed"},
      {"measurement": "Difference from control", "setting": "[11]; Group 7: 0.3 mg/kg, po, daily", "value": 2.0},
      {"measurement": "Median Total Time to Endpoint", "setting": "[11]; Group 7: 0.3 mg/kg, po, daily", "value": 7.5, "unit": "days"},
      {"measurement": "Difference from control", "setting": "[11]; [15]", "value": 2.5},
      {"measurement": "Median Total Time to Endpoint", "setting": "[11]; [15]", "value": 8.0, "unit": "days"},
      {"measurement": "Difference from control", "setting": "[11]; [16]", "value": 1.8},
      {"measurement": "Median Total Time to Endpoint", "setting": "[11]; [16]", "value": 7.3, "unit": "days"},
      {"measurement": "Difference from control", "setting": "[11]; [17]", "value": 1.3},
      {"measurement": "Median Total Time to Endpoint", "setting": "[11]; [17]", "value": 6.8, "unit": "days"},
      {"measurement": "Difference from control", "setting": "[11]; [18]", "value": 1.6},
      {"measurement": "Median Total Time to Endpoint", "setting": "[11]; [18]", "value": 7.1, "unit": "days"},
      {"measurement": "tolerability", "setting": "[11]; po", "value": "well-tolerated"},
      {"measurement": "active as a single agent in MCF-7", "setting": "[11]; single agent, po, daily", "value": "Neither"}
    ]},
    {"molecule": "Cc1ccc(-c2cc(C(F)(F)F)nn2-c2ccc(S(N)(=O)=O)cc2)cc1", "note": "[celecoxib, reference compound]", "values": [
      {"measurement": "% tumor growth delay", "setting": "[2]; [19]", "value": "−4", "unit": "%"},
      {"measurement": "Difference from control", "setting": "[2]; [19]", "value": "−1.6"},
      {"measurement": "Median Total Time to Endpoint", "setting": "[2]; [19]", "value": 36.6, "unit": "days"},
      {"measurement": "Regressions: CR (complete regressions)", "setting": "[2]; [19]", "value": "0/0/0"},
      {"measurement": "Regressions: PR (partial regressions)", "setting": "[2]; [19]", "value": "0/0/0"},
      {"measurement": "Regressions: TFS (tumor free survivors)", "setting": "[2]; [19]", "value": "0/0/0"},
      {"measurement": "% tumor growth delay", "setting": "[2]; [13]", "value": "−4", "unit": "%"},
      {"measurement": "Difference from control", "setting": "[2]; [13]", "value": "−1.4"},
      {"measurement": "Median Total Time to Endpoint", "setting": "[2]; [13]", "value": 36.8, "unit": "days"},
      {"measurement": "Regressions: CR (complete regressions)", "setting": "[2]; [13]", "value": "0/0/0"},
      {"measurement": "Regressions: PR (partial regressions)", "setting": "[2]; [13]", "value": "0/0/0"},
      {"measurement": "Regressions: TFS (tumor free survivors)", "setting": "[2]; [13]", "value": "0/0/0"},
      {"measurement": "Regressions: CR (complete regressions)", "setting": "[2]; [14]", "value": "0/0/0"},
      {"measurement": "Regressions: PR (partial regressions)", "setting": "[2]; [14]", "value": "0/0/0"},
      {"measurement": "Regressions: TFS (tumor free survivors)", "setting": "[2]; [14]", "value": "0/0/0"},
      {"measurement": "Difference from control", "setting": "[11]; Group 8: 100 mg/kg, po, daily", "value": 1.6},
      {"measurement": "Median Total Time to Endpoint", "setting": "[11]; Group 8: 100 mg/kg, po, daily", "value": 7.1, "unit": "days"},
      {"measurement": "Difference from control", "setting": "[11]; [15]", "value": 2.1},
      {"measurement": "Median Total Time to Endpoint", "setting": "[11]; [15]", "value": 7.6, "unit": "days"},
      {"measurement": "Difference from control", "setting": "[11]; [16]", "value": 2.1},
      {"measurement": "Median Total Time to Endpoint", "setting": "[11]; [16]", "value": 7.6, "unit": "days"},
      {"measurement": "Difference from control", "setting": "[11]; [17]", "value": 1.4},
      {"measurement": "Median Total Time to Endpoint", "setting": "[11]; [17]", "value": 6.9, "unit": "days"},
      {"measurement": "Difference from control", "setting": "[11]; [18]", "value": 1.7},
      {"measurement": "Median Total Time to Endpoint", "setting": "[11]; [18]", "value": 7.2, "unit": "days"},
      {"measurement": "tolerability", "setting": "[11]; po", "value": "well-tolerated"}
    ]},
    {"molecule": "Cc1onc(-c2ccccc2)c1-c1ccc(S(N)(=O)=O)cc1", "note": "[valdecoxib]", "values": [
      {"measurement": "reduction of tumor volume", "setting": "[12]; [20]", "value": 69, "unit": "%"}
    ]},
    {"molecule": "O=P1(N(CCCl)CCCl)NCCCO1", "note": "(centres unmarked) [cyclophosphamide]", "values": [
      {"measurement": "Difference from control", "setting": "[11]; Group 2: 112 mg/kg Q4D×3", "value": 9.2},
      {"measurement": "Median Total Time to Endpoint", "setting": "[11]; Group 2: 112 mg/kg Q4D×3", "value": 14.7, "unit": "days"}
    ]},
    {"molecule": "O=c1[nH]cc(F)c(=O)[nH]1", "note": "[5-FU, 5-fluorouracil]", "values": [
      {"measurement": "reduction of tumor volume", "setting": "[12]; second assay (B): 5-FU i.p 50 mg/kg on days 12, 13, 14, and 15, pyrrole in the diet", "value": 61, "unit": "%"},
      {"measurement": "reduction of tumor volume", "setting": "[12]; [20]", "value": 35, "unit": "%"}
    ]}
  ]
}
